The source of these data is patent publication US8058475B2, “Substituted cyclohexylmethyl compounds” (Gruenenthal GmbH, priority 2005, dated 2011).

The target of the experiment is human μ-opiate receptor (Homo sapiens, UniProt P35372). Briefly: Affinity for the human μ-opiate receptor ([3H]-naloxone displacement, SPA, CHO-K1 membrane preparation). Type of experiment: binding. As to conditions: for inhibition at 1 µM: read-out: μ-Opioid receptor, % inhibition [1 μM]; for Ki: read-out: μ-Opioid receptor, Ki.
Where [1] appears, read: 1 μM test substance, inhibition of specific [3H]-naloxone binding.

One may read the inhibition as the change of the read-out against control, counted positive when it falls. The Ki is a measure of affinity in units of concentration, obtained from inhibition or displacement.

Like-named read-outs stand apart in the source and are kept apart here.

Sequence of human μ-opiate receptor (P35372 whole entry): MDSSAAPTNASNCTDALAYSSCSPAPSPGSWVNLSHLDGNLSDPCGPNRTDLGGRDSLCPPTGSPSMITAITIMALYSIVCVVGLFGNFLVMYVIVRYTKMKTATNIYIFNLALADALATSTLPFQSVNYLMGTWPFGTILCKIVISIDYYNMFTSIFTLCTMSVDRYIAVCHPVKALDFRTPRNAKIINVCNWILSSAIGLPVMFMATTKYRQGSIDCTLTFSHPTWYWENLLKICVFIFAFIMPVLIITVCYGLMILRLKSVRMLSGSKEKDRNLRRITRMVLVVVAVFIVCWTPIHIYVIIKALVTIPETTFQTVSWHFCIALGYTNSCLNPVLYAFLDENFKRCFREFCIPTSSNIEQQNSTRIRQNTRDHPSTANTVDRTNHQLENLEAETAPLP

For the compound `Cc1cccc(C(=O)NC2CCC(C(CCc3ccccc3)N(C)C)CC2)c1` (stereo not drawn) [compound 248, N-[4-(1-dimethylamino-3-phenyl-propyl)-cyclohexyl]-3-methyl-benzamide], the inhibition at 1 µM was 81% and the Ki was 88 nM.
The like results for `CN(C)C(c1ccc(Cl)cc1)C1CCC(CNC(=O)c2csc3ccccc23)CC1` (single isomer, unassigned) [compound 336, benzo[b]thiophene-3-carboxylic acid {4-[(4-chloro-phenyl)-dimethylamino-methyl]-cyclohexylmethyl}-amide] were, in that order, 92% and 39 nM.
The like results for `CN(C)C(c1ccc(F)cc1)C1CCC(CNC(=O)c2csc3ccccc23)CC1` (stereo not drawn) [compound 344, benzo[b]thiophene-3-carboxylic acid {4-[dimethylamino-(4-fluoro-phenyl)-methyl]-cyclohexylmethyl}-amide] were, in that order, 90% and 13 nM.
Regarding `CN(C)C(c1ccccc1)C1CCC(CCNC(=O)c2cc(F)cc(F)c2)CC1` (stereo not drawn) [compound 433, N-{2-[4-(dimethylamino-phenyl-methyl)-cyclohexyl]-ethyl}-3,5-difluoro-benzamide], the inhibition at 1 µM is 89% and the Ki worked out at 3.8 nM.
As for `CN(C)C(c1ccccc1)C1CCC(CNC(=O)C2(c3ccc(Cl)cc3)CCCC2)CC1` (stereo not drawn) [compound 318, 1-(4-chloro-phenyl)-cyclopentane-carboxylic acid [4-(dimethylamino-phenyl-methyl)-cyclohexylmethyl]-amide], the inhibition at 1 µM was found to be 95% and the inhibitory constant (Ki) amounted to 23 nM.
The like results for `COc1cccc(OC)c1C(=O)NCC1CCC(C(c2cccs2)N(C)C)CC1` (stereo not drawn) [compound 300, N-[4-(dimethylamino-thiophen-2-yl-methyl)-cyclohexylmethyl]-2,6-dimethoxy-benzamide] were, in that order, 99% and 1.4 nM.
Regarding `Cc1cc(C(=O)NC2CCC(C(c3cccs3)N(C)C)CC2)no1` (stereo not drawn) [compound 224, 5-Methyl-isoxazole-3-carboxylic acid [4-(dimethylamino-thiophen-2-yl-methyl)-cyclohexyl]-amide], the inhibition at 1 µM stood at 87%.
Take `CN(C)C(c1ccc(Cl)cc1)C1CCC(CCNC(=O)c2ccccc2Br)CC1` (stereo not drawn) [compound 395, 2-bromo-N-(2-{4-[(4-chloro-phenyl)-dimethylamino-methyl]-cyclohexyl}-ethyl)-benzamide]: the inhibition at 1 µM amounted to 81% and the Ki was determined as 46 nM.
The matching figures for `CN(C)C(c1cccs1)C1CCC(CCNC(=O)c2c(Cl)cccc2Cl)CC1` (stereo not drawn) [compound 431, 2,6-dichloro-N-{2-[4-(dimethylamino-thiophen-2-yl-methyl)-cyclohexyl]-ethyl}-benzamide]: 93% and 26 nM.
The like results for `CN(C)C(c1cccs1)C1CCC(CCNC(=O)c2ccc(F)cc2)CC1` (stereo not drawn) [compound 426, N-{2-[4-(dimethylamino-thiophen-2-yl-methyl)-cyclohexyl]-ethyl}-4-fluoro-benzamide] were, in that order, 99% and 5.8 nM.
Regarding `CN(C)C(c1cccc(F)c1)C1CCC(O)(Cc2ccccc2)CC1` (stereo not drawn) [compound 152, 1-benzyl-4-[dimethylamino-(3-fluoro-phenyl)-methyl]-cyclohexanol], the inhibition at 1 µM under setting [1] came out at 63%.
With `CCSc1ncccc1C(=O)NC1CCC(C(c2cccs2)N(C)C)CC1` (stereo not drawn) [compound 213, N-[4-(dimethylamino-thiophen-2-yl-methyl)-cyclohexyl]-2-ethylsulfanyl-nicotinamide], the inhibition at 1 µM stood at 91% and the inhibition constant Ki amounted to 96 nM.
For `CCC(C(=O)NCCC1CCC(C(c2ccc(Cl)cc2)N(C)C)CC1)c1ccccc1` (stereo not drawn) [compound 455, N-(2-{4-[(4-chloro-phenyl)-dimethylamino-methyl]-cyclohexyl}-ethyl)-2-phenyl-butyramide], the inhibition at 1 µM stood at 81% and the Ki worked out at 69 nM.
For `CN(C)C(c1cccc(F)c1)C1CCC(CNC(=O)Cc2cccs2)CC1` (stereo not drawn) [compound 343, N-{4-[dimethylamino-(3-fluoro-phenyl)-methyl]-cyclohexylmethyl}-2-thiophen-2-yl-acetamide], the inhibition at 1 µM worked out at 90%.
Turning to “4-((dimethylamino)(phenyl)methyl)-1-(4-fluoro-3-methylphenyl)cyclohexanol [compound 150]”, under setting [1], the “μ-Opioid receptor, % inhibition [1 μM]” value turned out to be 74%.
Turning to `Cc1cc(C(=O)NC2CCC(C(c3ccccc3)N(C)C)CC2)c(C)o1` (stereo not drawn) [compound 279, 2,5-dimethyl-furan-3-carboxylic acid [4-(dimethylamino-phenyl-methyl)-cyclohexyl]-amide], the inhibition at 1 µM is 74% and the Ki was 140 nM.
The like results for `CN(C)C(c1cccs1)C1CCC(CCNC(=O)c2ccccc2Cl)CC1` (stereo not drawn) [compound 425, 2-chloro-N-{2-[4-(dimethylamino-thiophen-2-yl-methyl)-cyclohexyl]-ethyl}-benzamide] were, in that order, 94% and 6 nM.
Turning to `CN(C)C(c1cccc(F)c1)C1CCC(NC(=O)c2ccc(F)c(Cl)c2)CC1` (stereo not drawn) [compound 269, 3-chloro-N-{4-[dimethylamino-(3-fluoro-phenyl)-methyl]-cyclohexyl}-4-fluoro-benzamide], the inhibition at 1 µM is 75% and the inhibition constant (Ki) is 47 nM.
Take `CC(Oc1ccccc1)C(=O)NC1CCC(C(c2cccc(F)c2)N(C)C)CC1` (single isomer, unassigned) [compound 215, N-{4-[dimethylamino-(3-fluoro-phenyl)-methyl]-cyclohexyl}-2-phenoxy-propionamide]: the inhibition at 1 µM was 90% and the Ki worked out at 34 nM.
With `CN(C)C(c1ccccc1)C1CCC(CCNC(=O)c2c(F)cccc2F)CC1` (stereo not drawn) [compound 461, N-{2-[4-(dimethylamino-phenyl-methyl)-cyclohexyl]-ethyl}-2,6-difluoro-benzamide], the inhibition at 1 µM stood at 100% and the Ki was 17 nM.
`CN(C)C(c1ccccc1)C1CCC(NC(=O)c2ccccc2Br)CC1` (stereo not drawn) [compound 286, 2-bromo-N-[4-(dimethylamino-phenyl-methyl)-cyclohexyl]-benzamide]: the inhibition at 1 µM stood at 71% and the inhibition constant Ki amounted to 54 nM.
The matching figures for `CN(C)C(c1ccc(F)cc1)C1CCC(CCNC(=O)c2ccc3ccccc3c2)CC1` (stereo not drawn) [compound 442, naphthalene-2-carboxylic acid (2-{4-[dimethylamino-(4-fluoro-phenyl)-methyl]-cyclohexyl}-ethyl)-amide]: 86% and 110 nM.
With `CC(Oc1ccccc1)C(=O)NCC1CCC(C(c2cccc(F)c2)N(C)C)CC1` (stereo not drawn) [compound 346, N-{4-[dimethylamino-(3-fluoro-phenyl)-methyl]-cyclohexylmethyl}-2-phenoxy-propionamide], the inhibition at 1 µM is 90% and the inhibition constant Ki amounted to 65 nM.
The matching figures for `CN(C)C(c1ccccc1)C1CCC(NC(=O)c2cccc(C(F)(F)F)c2)CC1` (stereo not drawn) [compound 203, N-[4-(dimethylamino-phenyl-methyl)-cyclohexyl]-3-trifluoromethyl-benzamide]: 94% and 51 nM.
Take `CN(C)C(c1ccc(Cl)cc1)C1CCC(CCNC(=O)c2cc(F)cc(F)c2)CC1` (stereo not drawn) [compound 434, N-(2-{4-[(4-chloro-phenyl)-dimethylamino-methyl]-cyclohexyl}-ethyl)-3,5-difluoro-benzamide]: the inhibition at 1 µM worked out at 85% and the inhibition constant Ki amounted to 24 nM.
The like results for `CN(C)C(c1cccs1)C1CCC(CCNC(=O)c2csc3ccccc23)CC1` (stereo not drawn) [compound 465, benzo[b]thiophene-3-carboxylic acid {2-[4-(dimethylamino-thiophen-2-yl-methyl)-cyclohexyl]-ethyl}-amide] were, in that order, 99% and 3.1 nM.
On to `CN(C)C(c1ccccc1)C1CCC(CCNC(=O)c2ccc3snnc3c2)CC1` (stereo not drawn) [compound 472, benzo[1,2,3]thiadiazole-5-carboxylic acid {2-[4-(dimethylamino-phenyl-methyl)-cyclohexyl]-ethyl}-amide], for which the inhibition at 1 µM is 85%.
The same measure, in the same setting: with `Cc1ccc(Oc2ncccc2C(=O)NCC2CCC(C(c3cccc(F)c3)N(C)C)CC2)cc1` (stereo not drawn) [compound 337, N-{4-[dimethylamino-(3-fluoro-phenyl)-methyl]-cyclohexylmethyl}-2-p-tolyloxy-nicotinamide] the figure was 92%.
On to `CN(C)C(c1ccccc1)C1CCC(CCNC(=O)c2csc(-c3ccccc3)n2)CC1` (stereo not drawn) [compound 463, 2-phenyl-thiazole-4-carboxylic acid {2-[4-(dimethylamino-phenyl-methyl)-cyclohexyl]-ethyl}-amide], for which the inhibition at 1 µM stood at 104% and the inhibition constant Ki turned out to be 8.6 nM.
Consider `CN(C)C(c1ccccc1)C1CCC(CNC(=O)c2cccnc2Oc2ccc(Cl)cc2)CC1` (single isomer, unassigned) [compound 383, 2-(4-chloro-phenoxy)-N-[4-(dimethylamino-phenyl-methyl)-cyclohexylmethyl]-nicotinamide], for which the Ki was determined as 86 nM. For the same compound, the “μ-Opioid receptor, % inhibition [1 μM]” value (1 µM) came out at 83%.
`CCn1nc(C)c(Br)c1C(=O)NC1CCC(C(c2ccccc2)N(C)C)CC1` (stereo not drawn) [compound 268, 4-bromo-2-ethyl-5-methyl-2H-pyrazole-3-carboxylic acid [4-(dimethylamino-phenyl-methyl)-cyclohexyl]-amide]: the inhibition at 1 µM was 76% and the Ki came out at 86 nM.
The matching figures for `CN(C)C(c1cccc(F)c1)C1CCC(CCNC(=O)c2ccc(F)cc2)CC1` (stereo not drawn) [compound 409, N-(2-{4-[dimethylamino-(3-fluoro-phenyl)-methyl]-cyclohexyl}-ethyl)-4-fluoro-benzamide]: 84% and 28 nM.
Turning to `CCSc1ncccc1C(=O)NCC1CCC(C(c2ccccc2)N(C)C)CC1` (stereo not drawn) [compound 310, N-[4-(dimethylamino-phenyl-methyl)-cyclohexylmethyl]-2-ethylsulfanyl-nicotinamide], the inhibition at 1 µM worked out at 98% and the inhibition constant (Ki) turned out to be 16 nM.
